Like-named read-outs stand apart in the source and are kept apart here.
How the values were obtained:
[1] = biological target: T1, human IDO (IDO1-expressing HEK293 cells) (Homo sapiens, UniProt P14902); experiment: Cell based kynurenine assay, IDO1-expressing HEK293 cell clones; details: IDO1-expressing HEK293 cells, geometric mean, read-out: HEK293 IDO1 Kynurenine GMean IC50 (μM) (Cellular Assay)
T1 construct: expressed in transfected cells
In short: (§1)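 IC50 values come from nonlinear regression of kynurenine reduction in supernatants of human IDO1- or TDO-expressing HEK293 cells incubated 24 h with serially diluted compounds, normalised to cell and media-only controls containing 0.2% DMSO.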

[2] = biological target: T2, Human Tryptophan 2,3-dioxygenase (TDO) (Homo sapiens, UniProt P48775); experiment: Human TDO enzymatic assay (kynurenine level); format: biochemical; details: 1 nM TDO, 350 μM L-Trp; geometric mean; read-out: TDO GMean: IC50 (μM) (Biochemical Assay)
T2 construct: His tag (N); made in house; host or cells: E. coli
T2 sequence (P48775 whole entry): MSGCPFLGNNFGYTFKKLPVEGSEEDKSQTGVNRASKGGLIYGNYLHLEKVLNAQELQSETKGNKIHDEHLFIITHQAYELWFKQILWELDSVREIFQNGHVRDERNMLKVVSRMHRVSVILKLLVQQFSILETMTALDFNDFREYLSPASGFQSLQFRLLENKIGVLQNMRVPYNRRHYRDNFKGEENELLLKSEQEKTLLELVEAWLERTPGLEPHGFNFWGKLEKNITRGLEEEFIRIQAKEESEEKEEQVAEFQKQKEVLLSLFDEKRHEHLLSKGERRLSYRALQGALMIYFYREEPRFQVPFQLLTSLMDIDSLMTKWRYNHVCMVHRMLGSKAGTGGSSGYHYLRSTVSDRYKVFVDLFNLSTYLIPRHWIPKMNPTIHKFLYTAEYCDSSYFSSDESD
In short: (§2)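 Kynurenine formed is measured after TCA quench and 50 °C hydrolysis, with % inhibition against full-reaction and no-enzyme controls (5% DMSO). IDO: 6 nM enzyme, 10 μM L-Trp, 5 μM methylene blue, 20 min; TDO: 1 nM, 350 μM L-Trp, 0.4 μM methylene blue, 70 min; both pH 6.5, room temp, E. coli-expressed His-tagged.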

[3] = biological target: T3, human TDO (TDO-expressing HEK293 cells) (Homo sapiens, UniProt P48775); experiment: Cell based kynurenine assay, TDO-expressing HEK293 cell clones; details: TDO-expressing HEK293 cells, geometric mean, read-out: HEK293 TDO Kynurenine GMean IC50 (μM) (Cellular Assay)
T3 construct: expressed in transfected cells
T3 sequence (P48775 whole entry): as above
In short: as §1

[4] = biological target: T4, Human Indoleamine 2,3-dioxygenase (IDO) (Homo sapiens, UniProt P14902); experiment: Human IDO enzymatic assay (kynurenine level); format: biochemical; details: 6 nM IDO, 10 μM L-Trp; geometric mean; read-out: IDO1 GMean: IC50 (μM) (Biochemical Assay)
T4 construct: His tag (N); made in house; host or cells: E. coli
T4 sequence (P14902 whole entry): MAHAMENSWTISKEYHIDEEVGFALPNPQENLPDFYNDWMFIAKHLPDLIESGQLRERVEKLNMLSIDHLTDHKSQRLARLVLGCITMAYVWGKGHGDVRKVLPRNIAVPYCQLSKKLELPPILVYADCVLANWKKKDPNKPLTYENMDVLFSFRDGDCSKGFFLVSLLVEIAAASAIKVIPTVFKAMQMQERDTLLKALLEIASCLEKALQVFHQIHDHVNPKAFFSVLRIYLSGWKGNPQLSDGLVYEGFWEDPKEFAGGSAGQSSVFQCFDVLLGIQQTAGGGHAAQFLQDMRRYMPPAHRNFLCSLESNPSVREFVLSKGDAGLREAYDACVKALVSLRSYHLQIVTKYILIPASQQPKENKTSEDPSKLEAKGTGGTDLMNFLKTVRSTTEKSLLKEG
In short: as §2

T1 sequence (P14902 whole entry): as above

Row | IC50 ([1]; 24 hours) | IC50 [2] | IC50 ([3]; 24 hours) | IC50 [4] | IC50 ([1]; 24 hours incubation) | IC50 ([3]; 24 hours incubation) | SMILES
1 | 0.0001 to 10 µM | 0.0001 to 10 µM | 0.0001 to 10 µM | 0.0001 to 10 µM |  |  | CCOC(=O)NC(=O)N1CCC(C(C)(C)[C@H](O)c2c(F)c(Cl)cc3cn[nH]c23)CC1 [Compound P-0513, ethyl (S)-(4-(1-(5-chloro-6-fluoro-1H-indazol-7-yl)-1-hydroxy-2-methylpropan-2-yl)piperidine-1-carbonyl)carbamate]
2 | 0.0001 to 10 µM | 0.0001 to 10 µM | 0.0001 to 10 µM | 0.0001 to 10 µM |  |  | CC(C)(C1CCN(C(=O)CC(F)(F)F)CC1)C(O)c1cc(Cl)cc2cn[nH]c12 (centres unmarked) [Compound P-0459, 1-(4-(1-(5-chloro-1H-indazol-7-yl)-1-hydroxy-2-methylpropan-2-yl)piperidin-1-yl)-3,3,3-trifluoropropan-1-one]
3 |  | 10 to 100 µM |  | > 200 µM | > 10 µM | > 10 µM | CC(C)(C(O)c1cc(Cl)cc2cn[nH]c12)N1CCCCC1 (centres unmarked) [Compound P-0216, 1-(5-chloro-1H-indazol-7-yl)-2-methyl-2-(piperidin-1-yl)propan-1-ol]
4 | 0.0001 to 10 µM | 0.0001 to 10 µM | 0.0001 to 10 µM | 0.0001 to 10 µM |  |  | CCC(=O)N1CCC(C(C)(C)C(O)c2c(F)c(Cl)cc3cn[nH]c23)CC1 (centres unmarked) [Compound P-0421, 1-(4-(1-(5-chloro-6-fluoro-1H-indazol-7-yl)-1-hydroxy-2-methylpropan-2-yl)piperidin-1-yl)propan-1-one]
5 | 0.0001 to 10 µM | 0.0001 to 10 µM | 0.0001 to 10 µM | 0.0001 to 10 µM |  |  | CC(C)(C1CCN(C(=O)Nc2ccc(F)nc2)CC1)[C@H](O)c1cc(Cl)cc2cn[nH]c12 [Compound P-0559, (S)-4-(1-(5-chloro-1H-indazol-7-yl)-1-hydroxy-2-methylpropan-2-yl)-N-(6-fluoropyridin-3-yl)piperidine-1-carboxamide]
6 |  | 0.0001 to 10 µM |  | 0.0001 to 10 µM | 0.0001 to 10 µM | 0.0001 to 10 µM | CC1(C(O)c2cc(Cl)cc3cn[nH]c23)CCCCC1 (centres unmarked) [Compound P-0006, (5-chloro-1H-indazol-7-yl)(1-methylcyclohexyl)methanol]
7 |  | 0.0001 to 10 µM |  | 0.0001 to 10 µM | 0.0001 to 10 µM | 0.0001 to 10 µM | CC1(C(O)c2c3c(cc4cn[nH]c24)CCC3)CCCCC1 (centres unmarked) [Compound P-0099, (1-methylcyclohexyl)(1,5,6,7-tetrahydrocyclopenta[f]indazol-8-yl)methanol]
8 | 0.0001 to 10 µM | 0.0001 to 10 µM | 0.0001 to 10 µM | 0.0001 to 10 µM |  |  | CC(C)(C1CCN(C(=O)CN2CCCS2(=O)=O)CC1)C(O)c1cc(Cl)cc2cn[nH]c12 (centres unmarked) [Compound P-0486, 1-(4-(1-(5-chloro-1H-indazol-7-yl)-1-hydroxy-2-methylpropan-2-yl)piperidin-1-yl)-2-(1,1-dioxidoisothiazolidin-2-yl)ethan-1-one]
9 | 0.0001 to 10 µM | 0.0001 to 10 µM | 0.0001 to 10 µM | 0.0001 to 10 µM |  |  | CC(C)(C1CCN(C(=O)CC2CC2)CC1)[C@H](O)c1cc(Cl)cc2cn[nH]c12 [Compound P-0530, (S)-1-(4-(1-(5-chloro-1H-indazol-7-yl)-1-hydroxy-2-methylpropan-2-yl)piperidin-1-yl)-2-cyclopropylethan-1-one]
10 |  | 10 to 100 µM |  | 10 to 100 µM | > 10 µM | > 10 µM | CC(C)(N)CC(O)c1cc(Cl)cc2cn[nH]c12 (centres unmarked) [Compound P-0233, 3-amino-1-(5-chloro-1H-indazol-7-yl)-3-methylbutan-1-ol]
11 |  | 0.0001 to 10 µM |  | 0.0001 to 10 µM | 0.0001 to 10 µM | 0.0001 to 10 µM | OC(c1cc(Cl)cc2cn[nH]c12)C12CCC(C(F)F)(CC1)CC2 (centres unmarked) [Compound P-0269, (5-chloro-1H-indazol-7-yl)(4-(difluoromethyl)bicyclo[2.2.2]octan-1-yl)methanol]
12 |  | 0.0001 to 10 µM |  | 0.0001 to 10 µM | 0.0001 to 10 µM | 0.0001 to 10 µM | CC(C)(C1CCN(C(=O)Nc2ccc(F)cc2)CC1)[C@@H](O)c1cc(Cl)cc2cn[nH]c12 [Compound P-0339, (R)-4-(1-(5-chloro-1H-indazol-7-yl)-1-hydroxy-2-methylpropan-2-yl)-N-(4-fluorophenyl) piperidine-1-carboxamide]
13 |  | 0.0001 to 10 µM |  | 0.0001 to 10 µM | 0.0001 to 10 µM | 0.0001 to 10 µM | CC(C)(C1CCN(S(C)(=O)=O)CC1)C(O)c1c(F)c(Cl)cc2cn[nH]c12 (centres unmarked) [Compound P-0261, 1-(5-chloro-6-fluoro-1H-indazol-7-yl)-2-methyl-2-(1-(methylsulfonyl)piperidin-4-yl)propan-1-ol]
14 |  | 0.0001 to 10 µM |  | 10 to 100 µM | > 10 µM | > 10 µM | O=C(O)C1CCC(C(O)c2cc(Cl)cc3cn[nH]c23)CC1 (centres unmarked) [Compound P-0219, 4-((5-chloro-1H-indazol-7-yl)(hydroxy)methyl)cyclohexane-1-carboxylic acid]
15 |  | 0.0001 to 10 µM |  | 0.0001 to 10 µM | 0.0001 to 10 µM | 0.0001 to 10 µM | Cc1ccc2cn[nH]c2c1C(O)C1(C(F)(F)F)CCCC1 (centres unmarked) [Compound P-0049, (6-methyl-1H-indazol-7-yl)(1-(trifluoromethyl)cyclopentyl)methanol]
16 | 0.0001 to 10 µM | 0.0001 to 10 µM | > 10 µM | 0.0001 to 10 µM |  |  | O=C(NC1CCS(=O)(=O)CC1)N1CCC(C(F)(F)C(O)c2cc(Cl)cc3cn[nH]c23)CC1 (centres unmarked) [Compound P-0463, 4-(2-(5-chloro-1H-indazol-7-yl)-1,1-difluoro-2-hydroxyethyl)-N-(1,1-dioxidotetrahydro-2H-thiopyran-4-yl)piperidine-1-carboxamide]
17 |  | 0.0001 to 10 µM |  | 0.0001 to 10 µM | 0.0001 to 10 µM | 0.0001 to 10 µM | O[C@H](c1c(F)c(Cl)cc2cn[nH]c12)C12CCC(CC1)CC2 [Compound P-0334, (S)-bicyclo[2.2.2]octan-1-yl(5-chloro-6-fluoro-1H-indazol-7-yl)methanol]
18 |  | 0.0001 to 10 µM |  | 0.0001 to 10 µM | 0.0001 to 10 µM | 0.0001 to 10 µM | OC(c1cc(Cl)cc2cn[nH]c12)C(F)(F)C1CCOCC1 (centres unmarked) [Compound P-0192, 1-(5-chloro-1H-indazol-7-yl)-2,2-difluoro-2-(tetrahydro-2H-pyran-4-yl)ethan-1-ol]
19 | 0.0001 to 10 µM | 0.0001 to 10 µM | 0.0001 to 10 µM | 0.0001 to 10 µM |  |  | CC(C)(C1CCN(C(=O)NCCS(C)(=O)=O)CC1)C(O)c1cc(Cl)cc2cn[nH]c12 (centres unmarked) [Compound P-0452, 4-(1-(5-chloro-1H-indazol-7-yl)-1-hydroxy-2-methylpropan-2-yl)-N-(2-(methylsulfonyl)ethyl)piperidine-1-carboxamide]
20 | 0.0001 to 10 µM | 0.0001 to 10 µM | 0.0001 to 10 µM | 0.0001 to 10 µM |  |  | O=C(CC1CC1)N1CCC(C(F)(F)C(O)c2c(F)c(Cl)cc3cn[nH]c23)CC1 (centres unmarked) [Compound P-0408, 1-(4-(2-(5-chloro-6-fluoro-1H-indazol-7-yl)-1,1-difluoro-2-hydroxyethyl)piperidin-1-yl)-2-cyclopropylethan-1-one]
21 |  | 0.0001 to 10 µM |  | 0.0001 to 10 µM | 0.0001 to 10 µM | 0.0001 to 10 µM | CC(=O)N1C[C@H]2CC[C@@H](C1)[C@@H]2C(F)(F)C(O)c1cc(Cl)cc2cn[nH]c12 (stereo partly drawn) [Compound P-0303, 1-((1R,5S,8s)-8-(2-(5-chloro-1H-indazol-7-yl)-1,1-difluoro-2-hydroxyethyl)-3-azabicyclo[3.2.1]octan-3-yl)ethan-1-one]
22 |  | 0.0001 to 10 µM |  | 0.0001 to 10 µM | 0.0001 to 10 µM | 0.0001 to 10 µM | CC(C)(C)C(O)c1cc(Cl)cc2cn[nH]c12 (centres unmarked) [Compound P-0212, 1-(5-chloro-1H-indazol-7-yl)-2,2-dimethylpropan-1-ol]
23 |  | 0.0001 to 10 µM |  | 0.0001 to 10 µM | 0.0001 to 10 µM | 0.0001 to 10 µM | CNC(=O)N1CC2CCC(C1)C2CC(O)c1cc(Cl)cc2cn[nH]c12 (centres unmarked) [Compound P-0127, 8-(2-(5-chloro-1H-indazol-7-yl)-2-hydroxyethyl)-N-methyl-3-azabicyclo[3.2.l]octane-3-carboxamide]
24 |  | 0.0001 to 10 µM |  | 0.0001 to 10 µM | 0.0001 to 10 µM | 0.0001 to 10 µM | CCOC(=O)N1CCC(C(C)(C)C(O)c2cc(Cl)cc3cn[nH]c23)CC1 (centres unmarked) [Compound P-0322, ethyl 4-(1-(5-chloro-1H-indazol-7-yl)-1-hydroxy-2-methylpropan-2-yl)piperidine-1-carboxylate]
25 |  | 0.0001 to 10 µM |  | 0.0001 to 10 µM | 0.0001 to 10 µM | 0.0001 to 10 µM | CC(C)(C1CCN(C(=O)NC(=O)c2ccccc2)CC1)C(O)c1cc(Cl)cc2cn[nH]c12 (centres unmarked) [Compound P-0385, N-benzoyl-4-(1-(5-chloro-1H-indazol-7-yl)-1-hydroxy-2-methylpropan-2-yl)piperidine-1-carboxamide]
26 |  | 0.0001 to 10 µM |  | 0.0001 to 10 µM | 0.0001 to 10 µM | 0.0001 to 10 µM | OC(c1cc(Cl)cc2cn[nH]c12)C(F)(F)C1(O)CCC1 (centres unmarked) [Compound P-0289, 1-(2-(5-chloro-1H-indazol-7-yl)-1,1-difluoro-2-hydroxyethyl)cyclobutan-1-ol]

Reference: US10508085B2, “Compounds and methods for IDO and TDO modulation, and indications therefor” (Plexxikon Inc., priority 2016, dated 2019)
